Source: patent publication US7541364B2, “Pyridomorphinans, pyridazinomorphinans and use thereof” (priority 2003, dated 2009)
Read-outs that look alike come from different tables or passages of the source.

Columns and labels:
opioid δ receptor [1] = target: T1, opioid δ receptor (Rattus norvegicus, UniProt P33533); conditions: read-out: Ki (nM) ± SEM δ; [3H]DADLE, rat brain membranes; data from Ananthan et al. (I); cited from earlier work
T1 construct: Rat membranes are prepared each day using a partially thawed frozen rat brain; from tissue; host or cells: rat brain membranes

[2] = target: T2, δ receptor (mouse vas deferens) (Mus musculus, UniProt P32300); conditions: percentage inhibition of contraction at 1 μM; data from Ananthan et al. (I); cited from earlier work
[3] = target: μ receptor (guinea pig ileum) (Cavia porcellus, UniProt A0ACM8Q262); conditions: data from Ananthan et al. (I), cited from earlier work
opioid μ receptor [4] = target: T3, opioid μ receptor (Rattus norvegicus, UniProt P33535); conditions: data from Ananthan et al. (I), cited from earlier work
opioid κ receptor [5] = target: T4, opioid κ receptor (Cavia porcellus, UniProt P41144); conditions: data from Ananthan et al. (I), cited from earlier work
[6] = target: T2, δ receptor (mouse vas deferens); design: from tissue; host or cells: mouse vas deferens (male ICR mice); conditions: DPDPE as agonist; data from Ananthan et al. (I); cited from earlier work
mice [7] = test: 55° C. tail-flick antinociception test in mice; conditions: for naloxone sensitivity: naloxone 10 mg/kg ip, -10 min, yes = greater than 80% reduction in the antinociceptive effect
Method: Analgesic Testing and Assessment of Tolerance Development. The analgesic activity of selected ligands is tested in mice using the 55° C. tail-flick test as previously described. (See Wells et al., supra.) The test compounds are administered by the intracerbroventricular (icv) route. […] To determine whether the analgesic activity of the tested compounds is mediated through opioid receptors, the blockade of antinociceptive activity by pretreatment with naloxone is carried out. The analgesic activity was considered as naloxone sensitive if greater than 80% reduction in the antinociceptive response is observed.
Antinociceptive Studies. Male ICR mice (Harlan) are used for all evaluations. Mice are housed in a temperature and humidity controlled vivarium on a 12:12 h light:dark cycle with unlimited access to food and water prior to the formal procedures. […] The dihydrochloride salt of 7h is dissolved in water and injected in a volume of 5 μL. All other compounds are dissolved in 100% DMSO and injected in a volume of 5 μL. Antinociceptive assays are performed at various times after injection.
Percent antinociception is calculated using the formula: % MPE (maximal possible effect)=100×(test−control)/(cutoff−control) where control is the predrug observation, test is the postdrug observation, and cutoff is the maximal length of stimulus allowed (10 s for 55° C. tail-flick). Antinociceptive A50 values and 95% confidence intervals are determined using linear regression software (FlashCalc). Opioid activity of the test compounds are assessed by pretreating animals with naloxone (10 mg/kg ip, −10 min) followed by an icv injection of an approximate A90 dose of test compound. […] Antinociception is assessed in the 55° C. tail-flick test at 10, 20 and 30 min. A positive response to a fixed dose of naloxone is indicated when greater than 80% reduction in the antinociceptive effect of the agonist is observed.

κ receptor = κ receptor (Cavia porcellus, UniProt P41144); conditions: read-out: antagonist activity apparent Ki (nM ± SD) κ
μ receptor [8] = target: T5, μ receptor (Cavia porcellus, UniProt A0ACM8Q262); conditions: guinea pig caudate membranes; Xu et al.; cited from earlier work
mice [9] = conditions: icv or ip administration in mice; Wells et al.; cited from earlier work
mice [10] = conditions: icv or ip administration in mice; Wells et al.; cited from earlier work; remark: listed apart in the source
human μ receptors = human μ receptors (Homo sapiens, UniProt P35372); conditions: cloned cells expressing human μ receptors; Xu et al.; cited from earlier work
mice [11] = conditions: repeated ip injections; Wells et al.; cited from earlier work
δ receptor = δ receptor (Cavia porcellus, UniProt A0A286XTF2); test: biochemical
opioid δ receptor [12] = target: T1, opioid δ receptor; test: Opioid δ receptor binding, [3H]DADLE displacement in rat brain membranes; conditions: displacement of [3H]DADLE (1.3-2.0 nM), rat brain membranes, 100 nM DAMGO to block μ sites; read-out: Ki (nM) ± SEM δ
[13] = target: T2, δ receptor (mouse vas deferens); test: Mouse vas deferens (MVD) smooth muscle bioassay; conditions: inhibition of electrically stimulated contractions; read-out: agonist activity MVD (δ) IC50
Method: (§1) Bioassays in Smooth Muscle Preparations. The functional activity profiles of selected ligands are also determined in the mouse vas deferens (MVD) and guinea pig ileum (GPI) smooth muscle preparations as described previously.
(§2) The agonist activity is determined by the ability of the compound to inhibit electrically stimulated contractions of the GPI and MVD. The GPI is primarily a μ receptor preparation, even though the ileum does also contain κ receptors. In the MVD, the opioid effects are predominantly mediated through δ receptors, but μ and κ receptors also exist in this tissue.
(§3) Tissues came from male ICR mice weighing 25-40 g and male Hartley guinea pigs weighing 250-500 g. The tissues are tied to gold chain with suture silk, suspended in 20 mL baths containing 37° C. oxygenated (95% O2, 5% CO2) Krebs bicarbonate solution (magnesium free for the MVD), and allowed to equilibrate for 15 min. The tissues are then stretched to optimal length previously determined to be 1 g tension (0.5 g for MVD) and allowed to equilibrate for 15 min. The tissues are stimulated transmurally between platinum wire electrodes at 0.1 Hz, 0.4 ms pulses (2-ms pulses for MVD), and supramaximal voltage. […] Tissues not producing typical results are not used. Experimental compounds were added to the baths in 14-60 μL volumes. Succeeding doses of agonist are added cumulatively to the bath at 3 min intervals to produce a concentration-response curve. The tissues are then washed extensively with fresh buffer until the original contraction height is reestablished. […] The tissues are then washed with fresh buffer for 30 min, and the agonist dose-response curve was repeated. Rightward shifts in the dose-response curves are calculated by dividing the antagonized dose-response curve IC50 value by the unantagonized IC50 value. IC50 values represent the mean of two to four tissues. IC50 estimates and their associated standard errors are determined by using a computerized nonlinear least-squares method. (MINSQ Least Squares Parameter Estimation, version 3.05; MicroMath Inc., 1999.)

opioid μ receptor [14] = target: T3, opioid μ receptor
opioid κ receptor [15] = target: T4, opioid κ receptor
μ receptor [16] = target: T5, μ receptor; test: biochemical; conditions: read-out: agonist activity Emax % μ
mice [17] = test: Tolerance regimen, repeated icv injections, tail-flick assay; conditions: A90 doses icv twice daily for 3 days, tail-flick on day 4; FIG. 4
Text: Tolerance Regimen. […] Antinociceptive dose-response curves in the tail-flick assay are generated on the morning of the fourth day using the procedures outlined above.

[18] = target: T2, δ receptor (mouse vas deferens); test: Mouse vas deferens (MVD) smooth muscle bioassay; design: from tissue; host or cells: mouse vas deferens (male ICR mice)
Method: as §1, §2, §3

T4 sequence (P41144 whole entry): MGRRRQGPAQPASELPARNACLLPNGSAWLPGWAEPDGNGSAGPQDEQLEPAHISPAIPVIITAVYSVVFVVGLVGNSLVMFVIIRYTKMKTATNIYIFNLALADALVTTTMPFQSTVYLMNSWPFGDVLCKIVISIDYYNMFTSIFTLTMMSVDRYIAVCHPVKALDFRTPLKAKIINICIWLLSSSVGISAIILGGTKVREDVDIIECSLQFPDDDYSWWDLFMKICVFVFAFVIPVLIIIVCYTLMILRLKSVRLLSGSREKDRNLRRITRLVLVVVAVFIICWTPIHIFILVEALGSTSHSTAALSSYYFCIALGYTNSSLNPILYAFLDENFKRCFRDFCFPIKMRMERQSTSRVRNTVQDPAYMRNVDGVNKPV
T3 sequence (P33535 whole entry): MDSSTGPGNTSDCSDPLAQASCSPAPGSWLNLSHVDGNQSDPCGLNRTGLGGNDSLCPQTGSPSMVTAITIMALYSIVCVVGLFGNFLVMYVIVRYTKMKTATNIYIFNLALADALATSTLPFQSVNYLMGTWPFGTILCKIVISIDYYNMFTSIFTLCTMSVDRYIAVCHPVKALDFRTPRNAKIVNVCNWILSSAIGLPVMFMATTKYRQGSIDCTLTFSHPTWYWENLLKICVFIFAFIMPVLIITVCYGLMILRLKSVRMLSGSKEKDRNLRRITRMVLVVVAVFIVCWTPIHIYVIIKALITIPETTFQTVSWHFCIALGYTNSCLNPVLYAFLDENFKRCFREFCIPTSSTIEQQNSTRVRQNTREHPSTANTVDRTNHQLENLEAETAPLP
T2 sequence (P32300 whole entry): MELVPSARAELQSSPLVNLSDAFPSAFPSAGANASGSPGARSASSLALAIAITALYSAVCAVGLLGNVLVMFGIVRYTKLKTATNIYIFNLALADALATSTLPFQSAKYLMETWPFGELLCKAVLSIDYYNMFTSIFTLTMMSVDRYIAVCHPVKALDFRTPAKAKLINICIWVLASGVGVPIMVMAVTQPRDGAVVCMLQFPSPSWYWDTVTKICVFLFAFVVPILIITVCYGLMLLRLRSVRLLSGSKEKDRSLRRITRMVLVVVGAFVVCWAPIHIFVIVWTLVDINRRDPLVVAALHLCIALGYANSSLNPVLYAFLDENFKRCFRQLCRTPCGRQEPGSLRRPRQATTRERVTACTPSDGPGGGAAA
Chain of δ receptor (A0A286XTF2 1-366): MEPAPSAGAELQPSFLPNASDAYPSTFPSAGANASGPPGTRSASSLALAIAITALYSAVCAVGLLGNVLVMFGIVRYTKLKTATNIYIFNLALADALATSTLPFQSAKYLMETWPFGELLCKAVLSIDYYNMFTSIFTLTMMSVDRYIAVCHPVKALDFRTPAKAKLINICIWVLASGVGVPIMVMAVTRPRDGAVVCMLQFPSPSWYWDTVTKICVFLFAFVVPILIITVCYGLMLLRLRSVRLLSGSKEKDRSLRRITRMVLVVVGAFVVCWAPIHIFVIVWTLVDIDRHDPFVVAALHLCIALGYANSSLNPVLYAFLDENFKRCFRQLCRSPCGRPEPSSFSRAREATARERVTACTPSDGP
T1 sequence (P33533 whole entry): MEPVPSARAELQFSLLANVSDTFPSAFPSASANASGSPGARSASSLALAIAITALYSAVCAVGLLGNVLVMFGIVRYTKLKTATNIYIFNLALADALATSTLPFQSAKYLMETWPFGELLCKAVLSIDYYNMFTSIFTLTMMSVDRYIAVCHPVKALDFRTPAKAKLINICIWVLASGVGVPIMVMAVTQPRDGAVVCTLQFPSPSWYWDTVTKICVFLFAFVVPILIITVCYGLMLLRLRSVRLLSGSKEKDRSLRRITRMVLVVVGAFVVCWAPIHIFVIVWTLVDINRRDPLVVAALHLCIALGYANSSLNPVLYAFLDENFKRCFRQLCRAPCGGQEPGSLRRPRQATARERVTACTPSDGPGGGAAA
Chain of κ receptor (P41144 whole entry): as the sequence (P41144 whole entry) above
T5 sequence (A0ACM8Q262 1-400): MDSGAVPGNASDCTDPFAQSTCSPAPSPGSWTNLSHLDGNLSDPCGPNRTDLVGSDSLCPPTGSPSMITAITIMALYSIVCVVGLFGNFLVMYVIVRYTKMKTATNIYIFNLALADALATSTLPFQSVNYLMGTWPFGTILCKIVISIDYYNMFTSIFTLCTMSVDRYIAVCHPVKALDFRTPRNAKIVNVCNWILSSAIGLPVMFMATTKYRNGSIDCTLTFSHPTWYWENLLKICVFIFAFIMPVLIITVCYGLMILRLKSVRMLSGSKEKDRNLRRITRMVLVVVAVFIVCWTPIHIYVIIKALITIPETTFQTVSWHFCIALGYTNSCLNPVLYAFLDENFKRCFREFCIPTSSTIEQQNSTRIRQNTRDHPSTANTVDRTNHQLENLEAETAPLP
Chain of μ receptor (guinea pig ileum) (A0ACM8Q262 1-400): as above
Chain of human μ receptors (P35372 whole entry): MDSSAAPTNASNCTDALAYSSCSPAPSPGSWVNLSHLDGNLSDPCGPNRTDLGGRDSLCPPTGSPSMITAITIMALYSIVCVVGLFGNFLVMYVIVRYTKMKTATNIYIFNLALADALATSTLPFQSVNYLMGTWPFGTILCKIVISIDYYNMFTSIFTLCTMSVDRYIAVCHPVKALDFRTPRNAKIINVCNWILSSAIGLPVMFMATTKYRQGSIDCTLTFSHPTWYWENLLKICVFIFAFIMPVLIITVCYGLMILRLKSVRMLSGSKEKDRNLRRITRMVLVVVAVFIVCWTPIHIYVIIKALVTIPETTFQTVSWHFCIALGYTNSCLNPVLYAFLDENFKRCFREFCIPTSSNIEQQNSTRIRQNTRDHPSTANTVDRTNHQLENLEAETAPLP

**Q.** Which Ki (opioid δ receptor [1]) does the source give for `Oc1ccc2c3c1OC1c4ncc(-c5ccccc5)cc4CC4(O)C(C2)N(CC2CC2)CCC314` (stereo not shown) [2b] here?
**A.** 0.87 ± 0.07 nM

**Q.** What about the “agonist activity MVD (δ) % max resp” value [2] of the same molecule?
**A.** 4.7%

**Q.** What about the “antagonist activity GPI (μ) Ke” value ([3]; PL-017 as agonist) of the same molecule?
**A.** 43 ± 6.6 nM

**Q.** And the “agonist activity GPI (μ) % max resp” value ([3]; percentage inhibition of contraction at 1 μM)?
**A.** 0%

**Q.** What about the “selectivity ratio μ/δ” value (opioid μ receptor [4]) of the same molecule?
**A.** 16

**Q.** What about the Ki (opioid μ receptor [4]; read-out: Ki (nM) ± SEM μ, [3H]DAMGO, rat brain membranes) of the same molecule?
**A.** 13.5 ± 1 nM

**Q.** And the “selectivity ratio κ/δ” value (opioid κ receptor [5])?
**A.** 20

**Q.** What about the Ki (opioid κ receptor [5]; read-out: Ki (nM) ± SEM κ, [3H]U69,593, guinea pig brain membranes) of the same molecule?
**A.** 17.6 ± 1.6 nM

**Q.** What about the “antagonist activity MVD (δ) Ke” value [6] of the same molecule?
**A.** 3.7 ± 1.0 nM

**Q.** For `Oc1ccc2c3c1O[C@H]1c4ncc(-c5ccc(Cl)cc5)cc4C[C@@]4(O)[C@@H](C2)N(CC2CC2)CC[C@]314` [2c], which “% nociception @ 100 nmol” value (mice [7]; icv, 100 nmol, mouse tail-flick) is on record?
**A.** 21% @ 100 nmol^f

**Q.** And the naloxone sensitivity (mice [7])?
**A.** yes

**Q.** What about the Ki (κ receptor) of the same molecule?
**A.** 11.2 ± 0.44 nM

**Q.** And the “μ agonist activity in [35S]GTP-γ-S binding” value (μ receptor [8])?
**A.** failed to display μ agonist activity

**Q.** And the “agonist activity MVD (δ) % max resp” value [2]?
**A.** 21%

**Q.** What about the “analgesic activity in the tail-flick assay” value (mice [9]) of the same molecule?
**A.** partial agonist activity

**Q.** What about the “analgesic activity in the acetic acid writhing assay” value (mice [10]) of the same molecule?
**A.** full agonist activity

**Q.** And the “μ agonist activity in [35S]GTP-γ-S binding” value (human μ receptors)?
**A.** failed to display μ agonist activity

**Q.** What about the “tolerance to antinociceptive effects” value (mice [11]) of the same molecule?
**A.** did not produce tolerance

**Q.** And the Ki (δ receptor)?
**A.** 0.184 nM

**Q.** Which Ki (opioid δ receptor [12]) does the source give for `CN1CC[C@]23c4c5ccc(O)c4O[C@H]2c2ncc(-c4ccc(Cl)cc4)cc2C[C@H]3[C@H]1C5` [7h, 5′-(4-Chlorophenyl)-6,7-didehydro-4,5α-epoxy-3-hydroxy-17-methylpyrido[2′,3′:6,7]morphinan] here?
**A.** 4.4 ± 0.2 nM

**Q.** And the IC50 [13]?
**A.** 565 ± 12.7 nM

**Q.** What about the A50 (mice [7]; icv, mouse tail-flick, at time of peak drug effect) of the same molecule?
**A.** 42.8 nmol

**Q.** What about the “A50 potency value in the tail flick assay” value (mice [7]; mice, full agonist efficacy, FIG. 2) of the same molecule?
**A.** 21.9

**Q.** What about the naloxone sensitivity (mice [7]) of the same molecule?
**A.** yes

**Q.** What about the “blockade of antinociceptive activity by μ selective antagonist β-FNA” value (mice [7]; β-FNA 19 nmol, icv, -24 h, FIG. 3) of the same molecule?
**A.** completely blocked

**Q.** And the “selectivity ratio μ/δ” value (opioid μ receptor [14]; ratio of binding Ki values)?
**A.** 34

**Q.** What about the Ki (opioid μ receptor [14]; read-out: Ki (nM) ± SEM μ, displacement of [3H]DAMGO (1.4-3.0 nM), rat brain membranes) of the same molecule?
**A.** 148 ± 9.5 nM

**Q.** And the “selectivity ratio κ/δ” value (opioid κ receptor [15]; ratio of binding Ki values)?
**A.** 18

**Q.** And the Ki (opioid κ receptor [15]; read-out: Ki (nM) ± SEM κ, displacement of [3H]U69,593 (1.2-[…]), guinea pig brain membranes)?
**A.** 78 ± 13 nM

**Q.** What about the Ki (κ receptor) of the same molecule?
**A.** 333 ± 25 nM

**Q.** And the Ki (δ receptor)?
**A.** 11 nM

**Q.** And the Emax (μ receptor [16])?
**A.** 48 ± 2%

**Q.** And the “shift in antinociceptive A50 value after repeated injections” value (mice [17])?
**A.** less than 1.1 fold

**Q.** What about the Kb [18] of the same molecule?
**A.** 21.9 ± 2.14 nM
